Tested on: L. crispatus and E. coli
Experiment: Therapeutic effect protocol: L. crispatus / E. coli co-culture in LAPT-g media supplemented with therapeutic agents
Format: cell-based
Details: anaerobic, 37° C., measured 36 hours after inoculation, agent w/vol % as given per sample
Experimental: Therapeutic Effect Protocol
Colonies of L. crispatus and E. coli were prepared as follows. A colony of L. crispatus was transferred to 7 ml MRS broth and incubated anaerobically (using BD GasPak EZ anaerobe container system with indicator) at 37° C. without shaking for 18-20 hours. A colony of E. coli was transferred to 5 ml TSB broth and incubated aerobically (shaking at 100 rpm) at 37° C. for 18-20 hours.
Colonies were then inoculated as follows. Bacterial cultures were gently vortexed and 1 mL of each culture was transferred to a corresponding 2.0 mL micro-centrifuge tube and then centrifuged for two minutes at 14,500 rpm. The cultural supernatant was removed and the cell pellet was re-suspended in 1 mL of 0.95% (wt/vol %) saline. The re-suspended colony was then centrifuged for two minutes at 14,500 rpms and the supernatant was removed. For L. crispatus, the pellet was re-suspended in 1 mL of 0.95% saline to achieve ˜10^7-10^8 cfu/mL. For E. coli the pellet was re-suspended in 1 mL of 0.95% saline to achieve ˜10^8-10^9 cfu/mL.
Media were prepared as follows.
All of the ingredients in Table 1 were combined and the pH was adjusted to 6.5. The media were then autoclaved for 20 minutes at 125° C. To evaluate the effect of various therapeutic agents on the growth of bacteria the LAPT-g media, prepared as described above, was supplemented with various therapeutic agents to a final test concentration between 0.1 and 1.0%.
Five milliliters (5 mL) of each medium was transferred to a test tube in duplicates for subsequent inoculation. A master mixture of L. crispatus and E. coli, prepared as described above, was prepared in 1,000:1 ratio. Each (5 ml) test tube was inoculated with the master mixture to give 10^5-10^6 total CFU L. crispatus and 100-1,000 total CFU E. coli per tube.
To establish a negative control, one tube was vortexed and 100 μL was removed to determine the initial cell concentrations by serial dilutions and plating (2 plates per dilution). L. crispatus is selected on MRS agar plates incubated anaerobically at 37° C. for two days. E. coli is selected on TSA plates incubated aerobically at 37° C. for one day. The co-cultures were incubated in an anaerobic container with BD GasPaks at 37° C. for 36 hours.
The effect of the carbon source on the ratio of L. crispatus to E. coli was measured 36 hours after inoculation. The co-culture tube was vortexed and 100 μL was removed to determine the final cell concentrations by serial dilutions and plating (2 plates per dilution). L. crispatus is selected on MRS agar plates incubated anaerobically at 37° C. for two days. E. coli is selected on TSA plates incubated aerobically at 37° C. for one day.
Inventive samples were prepared by supplementing LAPT-g media, prepared as described above, with various therapeutic agents as described in Table 2, below. The therapeutic effect of the formulation was then measured using the assay described above in the Test Methods section above. The therapeutic effect is summarized below as the ratio of L. crispatus to E. coi.

| SMILES | L. crispatus/E. coli ratio |
| --- | --- |
| OC[C@H]1O[C@@H](O[C@@H]2[C@@H](CO)OC(O)(CO)[C@H]2O)[C@H](O)[C@@H](O)[C@H]1O (mixture of isomers) [Sample 28, Lactulose] | 3.9 |
| O=CC[C@H](O)[C@H](O)CO [Sample 21, 2-Deoxy-D-Ribose] | 1.7 |
| CO[C@H]1O[C@H](CO)[C@@H](O)[C@H](O)[C@H]1O [Sample 22, α-Methyl-D-Glucoside] | 3 |
| OC[C@H]1O[C@@H]2O[C@H]3[C@H](O)[C@@H](O)[C@@H](O[C@H]4[C@H](O)[C@@H](O)[C@@H](O[C@H]5[C@H](O)[C@@H](O)[C@@H](O[C@H]6[C@H](O)[C@@H](O)[C@@H](O[C@H]7[C@H](O)[C@@H](O)[C@@H](O[C@H]1[C@H](O)[C@H]2O)O[C@@H]7CO)O[C@@H]6CO)O[C@@H]5CO)O[C@@H]4CO)O[C@@H]3CO [Sample 23, α-Cyclodextrin] | 6.5 |
| O=C[C@@H](O)[C@H](O)[C@H](O)CO [Sample 24, D-Arabinose] | 2.2 |
| O.O.OC[C@H]1O[C@H](O[C@H]2O[C@H](CO)[C@@H](O)[C@H](O)[C@H]2O)[C@H](O)[C@@H](O)[C@@H]1O [Sample 26, D-Trehalose] | 30.1 |
| O=C(O)CC(O)C(=O)O (centres unmarked) [Sample 29, Malic acid] | 30.7 |
| OCc1ccccc1O[C@@H]1O[C@H](CO)[C@@H](O)[C@H](O)[C@H]1O [Sample 32, Salicin] | 1.5 |
